Assay results: the NIST ThermoML archive (doi:10.1021/acs.jced.8b00182)
Numbers after ± are expanded uncertainties.

Experiments:
[1] = Liquid; for mass density: 298.15 K, 100 kPa, Vibrating tube method; for vapor or sublimation pressure / Normal boiling temperature: Ebulliometric method (Recirculating still)
[2] = refractive index (Na D-line) (dimensionless); conditions: 298.15 K; 101.33 kPa; Liquid; Standard Abbe refractometry
[3] = xn = mol fraction of the nth substance listed; conditions: 298.15 K, 100 kPa, Liquid, Vibrating tube method

CCCCO [butan-1-ol]
Conditions	mass density [kg/m3]	refractive index
[1]	805.9 ± 0.2	–
[2]	–	1.39732 ± 0.00031

Conditions	vapor or sublimation pressure [kPa]
[1], 402.59 K	150 ± 3

CCCCO [butan-1-ol] + CCCCOC(C)=O
Conditions	mass density [kg/m3]
[3], x2 = 0	805.9 ± 0.2

CCCCOC(C)=O [butyl ethanoate]
Conditions	Normal boiling temperature [°C]	mass density [kg/m3]	refractive index
[1]	125.83 ± 0.2	876.5 ± 0.2	–
[2]	–	–	1.39201 ± 0.00033

Conditions	vapor or sublimation pressure [kPa]
[1], 413.3 K	150 ± 3

CCCCOC(C)=O [butyl ethanoate] + CCCCO
[3]
Conditions	mass density [kg/m3]
x1 = 0.0758	812.9 ± 0.2
x1 = 0.1018	815.2 ± 0.2
x1 = 0.1458	819 ± 0.2
x1 = 0.2387	826.7 ± 0.1
x1 = 0.3151	832.7 ± 0.1
x1 = 0.3468	835.1 ± 0.1
x1 = 0.3845	837.9 ± 0.1
x1 = 0.3983	838.9 ± 0.1
x1 = 0.4316	841.3 ± 0.1
x1 = 0.5002	846.1 ± 0.1
x1 = 0.5883	852 ± 0.1
x1 = 0.6709	857.3 ± 0.2
x1 = 0.7064	859.5 ± 0.2
x1 = 0.7919	864.7 ± 0.2
x1 = 0.8673	869.1 ± 0.2
x1 = 0.9259	872.4 ± 0.2
x1 = 0.9503	873.8 ± 0.2
x1 = 1	876.5 ± 0.2

CCCCOC(C)=O [butyl ethanoate] + CCCO
[3]
Conditions	mass density [kg/m3]
x1 = 0.0433	805.1 ± 0.2
x1 = 0.1028	812.1 ± 0.2
x1 = 0.2026	822.6 ± 0.2
x1 = 0.2517	827.3 ± 0.2
x1 = 0.2927	831 ± 0.2
x1 = 0.35	835.9 ± 0.2
x1 = 0.3986	839.8 ± 0.2
x1 = 0.4482	843.6 ± 0.2
x1 = 0.554	851.1 ± 0.2
x1 = 0.5962	853.9 ± 0.2
x1 = 0.6371	856.5 ± 0.2
x1 = 0.7071	860.8 ± 0.2
x1 = 0.7623	864 ± 0.2
x1 = 0.8001	866.1 ± 0.2
x1 = 0.8413	868.4 ± 0.2
x1 = 0.8942	871.2 ± 0.2
x1 = 0.9401	873.5 ± 0.2
x1 = 1	876.5 ± 0.2

CCCCOC(C)=O [butyl ethanoate] + CCO
[3]
Conditions	mass density [kg/m3]
x1 = 0.0443	793.7 ± 0.2
x1 = 0.1461	810.2 ± 0.2
x1 = 0.2003	817.6 ± 0.2
x1 = 0.2554	824.3 ± 0.2
x1 = 0.2954	828.8 ± 0.2
x1 = 0.3487	834.3 ± 0.1
x1 = 0.4451	843 ± 0.1
x1 = 0.4968	847.2 ± 0.1
x1 = 0.5987	854.6 ± 0.1
x1 = 0.6505	858 ± 0.1
x1 = 0.7492	863.9 ± 0.2
x1 = 0.8035	866.9 ± 0.2
x1 = 0.8567	869.7 ± 0.2
x1 = 0.8978	871.7 ± 0.2
x1 = 0.9429	873.9 ± 0.2
x1 = 1	876.5 ± 0.2

CCO [ethanol]
Conditions	Normal boiling temperature [°C]	mass density [kg/m3]	refractive index
[1]	78.30 ± 0.2	785.2 ± 0.2	–
[2]	–	–	1.35933 ± 0.00031

Conditions	vapor or sublimation pressure [kPa]
[1], 361.98 K	150 ± 3

CCO [ethanol] + CCCCOC(C)=O
Conditions	mass density [kg/m3]
[3], x2 = 0	785.2 ± 0.2

CO [methanol]
Conditions	vapor or sublimation pressure [kPa]
[1], 348.27 K	150 ± 3

Conditions	Normal boiling temperature [°C]	refractive index
[1]	64.70 ± 0.2	–
[2]	–	1.32676 ± 0.00031

CCCO [propan-1-ol]
Conditions	Normal boiling temperature [°C]	mass density [kg/m3]	refractive index
[1]	97.20 ± 0.2	799.6 ± 0.2	–
[2]	–	–	1.38315 ± 0.00031

Conditions	vapor or sublimation pressure [kPa]
[1], 381.24 K	150 ± 3

CCCO [propan-1-ol] + CCCCOC(C)=O
Conditions	mass density [kg/m3]
[3], x2 = 0	799.6 ± 0.2
